Test [1] has as its system absorption of sodium from the intestinal lumen. In words: Inhibition of intestinal sodium absorption (urinary sodium and fecal form). In kind it is in vivo, Sprague-Dawley rats. The following applies: rat; for response vs control in vivo at 3 mg/kg: 3 mg/kg oral gavage, urine 16 h post-dose, asterisks = significance vs vehicle (*P<0.05, **P<0.01, ***P<0.001), read-out: uNa (% of vehicle); for FFS: fecal form score, scale 1 (normal pellet) to 5 (liquid fecal streams), group average, 3 mg/kg oral, 16 h post-dose, vehicle = 1. The method, then: Urinary sodium concentration and fecal form were measured to assess the ability of selected example compounds to inhibit the absorption of sodium from the intestinal lumen. Eight-week old Sprague-Dawley rats were purchased from Charles River Laboratories (Hollister, Calif.), were housed 2 per cage, and acclimated for at least 3 days before study initiation. Animals were fed Harlan Teklad Global 2018 rodent chow (Indianapolis, Ind.) and water ad libitum throughout the study and maintained in a standard light/dark cycle of 6 AM to 6 PM. On the day of the study, between 4 PM and 5 PM, a group of rats (n=6) were dosed via oral gavage with test compound at the dosage indicated or vehicle (water) at a volume of 10 mL/kg. After dose administration animals were placed in individual metabolic cages where they were also fed the same chow in meal form and watered ad libitum. At 16 h post-dose, the urine samples were collected and fecal form was assessed by two independent observations. Fecal forms were scored according to a common scale associated with increasing fecal water to the wettest observation in the cage's collection funnel (1, normal pellet; 2, pellet adhering to sides of collection funnel due to moisture; 3, loss of normal pellet shape; 4, complete loss of shape with a blotting pattern; 5, liquid fecal streams evident). A rat's fecal form score (FFS) was determined by averaging both observational scores for all rats within a group (n=6). In every study the vehicle group average was 1. For urine samples, the volumes were determined gravimetrically and centrifuged at 3,600×g. The supernatants were diluted 100-fold in deionized Milli-Q water then filtered through a 0.2 μm GHP Pall AcroPrep filter plate (Pall Life Sciences, Ann Arbor, Mich.) prior to analysis by ion chromatography. Ten microliters of each filtered extract was injected onto a Dionex ICS-3000 ion chromatograph system (Dionex, Sunnyvale, Calif.). Cations were separated by an isocratic method using 25 mM methanesulfonic acid as the eluent on an IonPac CS12A 2 mm i.d.×250 mm, 8 μm particle size cation exchange column (Dionex). Sodium was quantified using standards prepared from a cation standard mix containing Li^+, Na^+, NH4^+, K^+, Mg^2+, and Ca^2+ (Dionex). The mean mass of sodium urinated for every group in the 16 h period was determined with the vehicle group usually urinating approximately 21 mg sodium. The urine Na (uNa) for rats in the test groups were expressed as a percentage of the vehicle mean and the means were compared to that of the vehicle group by utilizing a one-way analysis of variance coupled with a Dunnett's post hoc test.

Test [2] addresses T1, Rat NHE-3 (Rattus norvegicus, UniProt P26433).
T1 construct: expressed in transfected cells; host or cells: Opossum kidney (OK) cells (ATCC), transfected by electroporation
In words: Cell-based assay of NHE-3 activity (rat NHE-3 prompt inhibition). The conditions noted are these: OK cells with rat NHE-3 gene, compound present during pH recovery. Summed up:
(§1)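 Opossum kidney cells electroporated with rat or human NHE-3, loaded with 5 μM BCECF-AM in NH4Cl-HEPES pH 7.4 for 30 min at RT, then acidified 10 min in Na+-free choline HEPES. Na+-dependent pH recovery rates from BCECF fluorescence, averaged over ≥2 replicates, gave pIC50.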

For test [3], the target named is T1, Rat NHE-3. The test is described as follows: Cell-based assay of NHE-3 activity (persistent inhibition, after washout). The conditions noted are these: OK cells with rat NHE-3 gene, 60 min incubation, recovery initiated 40 min after compound washout. Summed up: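 OK cells transiently expressing rat NHE-3 were exposed to 0-30 μM compound in NaCl-HEPES pH 7.4 for 60 min, then washed free of drug before NH4Cl/BCECF-AM loading and acid-loading in Na+-free choline buffer. Na+-dependent pH recovery rates (mean of ≥2 replicates) gave pIC50.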

In test [4] the target is T2, human NHE-3 (Homo sapiens, UniProt P48764).
T2 construct: expressed in transfected cells; host or cells: Opossum kidney (OK) cells (ATCC), transfected by electroporation
T2 sequence (P48764 26-834): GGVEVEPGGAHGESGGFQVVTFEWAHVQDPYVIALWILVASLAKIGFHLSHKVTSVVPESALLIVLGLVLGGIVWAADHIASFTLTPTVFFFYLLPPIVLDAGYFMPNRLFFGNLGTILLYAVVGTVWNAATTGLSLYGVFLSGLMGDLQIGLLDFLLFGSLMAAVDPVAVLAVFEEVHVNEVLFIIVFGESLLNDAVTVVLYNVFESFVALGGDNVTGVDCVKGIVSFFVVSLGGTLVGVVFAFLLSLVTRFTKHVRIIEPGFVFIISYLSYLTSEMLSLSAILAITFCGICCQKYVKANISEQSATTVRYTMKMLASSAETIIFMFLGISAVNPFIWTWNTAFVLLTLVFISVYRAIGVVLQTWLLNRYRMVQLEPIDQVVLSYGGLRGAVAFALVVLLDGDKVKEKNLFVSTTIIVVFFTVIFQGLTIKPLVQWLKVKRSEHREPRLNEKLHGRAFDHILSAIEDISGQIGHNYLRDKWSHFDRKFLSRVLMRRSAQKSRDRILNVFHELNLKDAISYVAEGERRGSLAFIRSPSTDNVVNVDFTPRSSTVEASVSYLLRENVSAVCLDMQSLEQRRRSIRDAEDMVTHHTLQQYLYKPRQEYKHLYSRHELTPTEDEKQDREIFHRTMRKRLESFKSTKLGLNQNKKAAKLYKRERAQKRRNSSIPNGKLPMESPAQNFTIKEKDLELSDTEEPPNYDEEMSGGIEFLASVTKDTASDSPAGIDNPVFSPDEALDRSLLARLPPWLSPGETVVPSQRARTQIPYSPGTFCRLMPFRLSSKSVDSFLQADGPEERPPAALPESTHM
The test is described as follows: Cell-based assay of NHE-3 activity (human NHE3 inhibition assay). The conditions noted are these: OK cells with human NHE-3 gene, BCECF pH dye, 0-30 μM test compound. The method in brief: as §1

The structures appear in SMILES notation. Bounds are passed on as bounds.

T1 sequence (P26433 29-831): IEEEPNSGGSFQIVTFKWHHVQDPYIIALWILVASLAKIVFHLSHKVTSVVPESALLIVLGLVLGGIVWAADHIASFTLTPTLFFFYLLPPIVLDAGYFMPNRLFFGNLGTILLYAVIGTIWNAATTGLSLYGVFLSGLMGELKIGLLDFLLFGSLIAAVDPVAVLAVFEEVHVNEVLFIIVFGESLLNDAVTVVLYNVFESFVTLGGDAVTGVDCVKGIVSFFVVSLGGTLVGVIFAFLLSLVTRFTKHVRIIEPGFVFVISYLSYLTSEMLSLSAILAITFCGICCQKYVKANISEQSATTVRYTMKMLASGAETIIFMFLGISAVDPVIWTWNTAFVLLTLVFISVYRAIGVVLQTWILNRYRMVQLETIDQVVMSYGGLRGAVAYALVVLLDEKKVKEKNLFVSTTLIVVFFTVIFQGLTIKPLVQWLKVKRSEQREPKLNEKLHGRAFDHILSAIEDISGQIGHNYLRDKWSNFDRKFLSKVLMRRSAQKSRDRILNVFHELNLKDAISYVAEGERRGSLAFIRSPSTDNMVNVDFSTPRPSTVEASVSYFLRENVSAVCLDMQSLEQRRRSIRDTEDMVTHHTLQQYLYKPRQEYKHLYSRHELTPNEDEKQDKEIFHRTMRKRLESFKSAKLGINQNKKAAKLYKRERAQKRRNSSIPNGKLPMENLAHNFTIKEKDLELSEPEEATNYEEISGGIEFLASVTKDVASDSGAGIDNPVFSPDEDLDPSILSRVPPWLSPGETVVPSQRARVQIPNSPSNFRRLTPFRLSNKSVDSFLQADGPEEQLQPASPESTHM

For the compound `CN1Cc2c(Cl)cc(Cl)cc2[C@H](c2cccc(S(=O)(=O)NCCOCCOCCNC(=O)CCC(CCC(=O)NCCOCCOCCNS(=O)(=O)c3cccc([C@@H]4CN(C)Cc5c(Cl)cc(Cl)cc54)c3)(CCC(=O)NCCOCCOCCNS(=O)(=O)c3cccc([C@@H]4CN(C)Cc5c(Cl)cc(Cl)cc54)c3)NC(=O)NC(CO)CO)c2)C1` [Example 34], the response vs control in vivo at 3 mg/kg in test [1] was less than 35%. Besides, the “Rat NHE3 pIC50 (prompt)” value in test [2] is “C (C NHE3 pIC50 > 7)”. In addition, the “Rat NHE3 pIC50 (persistent)” value in test [3] is given as “C (C NHE3 pIC50 > 7)”. For the same compound, the “Human NHE3 pIC50” value in test [4] is on record as “C (C NHE3 pIC50 > 7)”.

Regarding `CN1Cc2c(Cl)cc(Cl)cc2[C@H](c2cccc(S(=O)(=O)NCCOCCOCCNC(=O)NCCC(CCNC(=O)NCCOCCOCCNS(=O)(=O)c3cccc([C@@H]4CN(C)Cc5c(Cl)cc(Cl)cc54)c3)(CCNC(=O)NCCOCCOCCNS(=O)(=O)c3cccc([C@@H]4CN(C)Cc5c(Cl)cc(Cl)cc54)c3)NC(=O)COCC(=O)O)c2)C1` [Example 66], in test [1], the response vs control in vivo at 3 mg/kg is less than 35%. In test [2], the “Rat NHE3 pIC50 (prompt)” value is listed as “C (C NHE3 pIC50 > 7)”. Moreover, the “Rat NHE3 pIC50 (persistent)” value in test [3] is “C (C NHE3 pIC50 > 7)”. Besides, in test [4], the “Human NHE3 pIC50” value is reported as “C (C NHE3 pIC50 > 7)”.

As to `CN1Cc2c(Cl)cc(Cl)cc2[C@H](c2cccc(S(=O)(=O)NCCOCCOCCNC(=O)CCC(CCC(=O)NCCOCCOCCNS(=O)(=O)c3cccc([C@@H]4CN(C)Cc5c(Cl)cc(Cl)cc54)c3)(CCC(=O)NCCOCCOCCNS(=O)(=O)c3cccc([C@@H]4CN(C)Cc5c(Cl)cc(Cl)cc54)c3)NC(=O)Cn3ccnc3)c2)C1` [Example 30], the response vs control in vivo at 3 mg/kg in test [1] is greater than 75%. In test [2], the “Rat NHE3 pIC50 (prompt)” value was “B (B NHE3 pIC50 5-7)”. Further, the “Rat NHE3 pIC50 (persistent)” value in test [3] is recorded as “C (C NHE3 pIC50 > 7)”. For the same compound, in test [4], the “Human NHE3 pIC50” value is listed as “B (B NHE3 pIC50 5-7)”.

Regarding `CN1Cc2c(Cl)cc(Cl)cc2[C@H](c2cccc(S(=O)(=O)NCCOCCOCCNC(=O)CCC(CCC(=O)NCCOCCOCCNS(=O)(=O)c3cccc([C@@H]4CN(C)Cc5c(Cl)cc(Cl)cc54)c3)(CCC(=O)NCCOCCOCCNS(=O)(=O)c3cccc([C@@H]4CN(C)Cc5c(Cl)cc(Cl)cc54)c3)NS(C)(=O)=O)c2)C1` [Example 5, N^1,N^7-bis(2-(2-(2-(3-((S)-6,8-dichloro-2-methyl-1,2,3,4-tetrahydroisoquinolin-4-yl)phenylsulfonamido)ethoxy)ethoxy)ethyl)-4-(3-(2-(2-(2-(3-((S)-6,8-dichloro-2-methyl-1,2,3,4-tetrahydroisoquinolin-4-yl)phenylsulfonamido)ethoxy)ethoxy)ethylamino)-3-oxopropyl)-4-(methylsulfonamido)heptanediamide], the response vs control in vivo at 3 mg/kg in test [1] lay within 35 to 75%. The IC50 was 100 to 10000 nM in test [2] (read-out: Rat NHE3 pIC50 (prompt) (converted)), less than 100 nM in test [3] (read-out: Rat NHE3 pIC50 (persistent) (converted)) and 100 to 10000 nM in test [4] (read-out: Human NHE3 pIC50 (converted)).

As to `CN1Cc2c(Cl)cc(Cl)cc2[C@H](c2cccc(S(=O)(=O)NCCOCCOCCNC(=O)NCCC[N+](C)(CCCNC(=O)NCCOCCOCCNS(=O)(=O)c3cccc([C@@H]4CN(C)Cc5c(Cl)cc(Cl)cc54)c3)CCCNC(=O)NCCOCCOCCNS(=O)(=O)c3cccc([C@@H]4CN(C)Cc5c(Cl)cc(Cl)cc54)c3)c2)C1` [Example 58], in test [1], the response vs control in vivo at 3 mg/kg lay within 35 to 75%. Further, the “Rat NHE3 pIC50 (prompt)” value in test [2] is reported as “C (C NHE3 pIC50 > 7)”. The “Rat NHE3 pIC50 (persistent)” value in test [3] is “C (C NHE3 pIC50 > 7)”. Besides, in test [4], the “Human NHE3 pIC50” value is recorded as “C (C NHE3 pIC50 > 7)”.

Regarding `CN1Cc2c(Cl)cc(Cl)cc2[C@H](c2cccc(S(=O)(=O)NCCOCCOCCNC(=O)NCCCC(CCCNC(=O)NCCOCCOCCNS(=O)(=O)c3cccc([C@@H]4CN(C)Cc5c(Cl)cc(Cl)cc54)c3)(CCCNC(=O)NCCOCCOCCNS(=O)(=O)c3cccc([C@@H]4CN(C)Cc5c(Cl)cc(Cl)cc54)c3)NC(=O)COCC(=O)O)c2)C1` [Example 64], the response vs control in vivo at 3 mg/kg in test [1] fell in the range of 35 to 75%. In addition, in test [2], the “Rat NHE3 pIC50 (prompt)” value is listed as “C (C NHE3 pIC50 > 7)”. Besides, the “Rat NHE3 pIC50 (persistent)” value in test [3] is reported as “C (C NHE3 pIC50 > 7)”. The “Human NHE3 pIC50” value in test [4] is listed as “C (C NHE3 pIC50 > 7)”.

Turning to `CN1Cc2c(Cl)cc(Cl)cc2[C@H](c2cccc(S(=O)(=O)NCCOCCOCCNC(=O)CCC(CCC(=O)NCCOCCOCCNS(=O)(=O)c3cccc([C@@H]4CN(C)Cc5c(Cl)cc(Cl)cc54)c3)(CCC(=O)NCCOCCOCCNS(=O)(=O)c3cccc([C@@H]4CN(C)Cc5c(Cl)cc(Cl)cc54)c3)NC(=O)N3CCN(CCOCCO)CC3)c2)C1` [Example 33], in test [1], the FFS is 2 and the response vs control in vivo at 3 mg/kg is less than 35%. Also, the “Rat NHE3 pIC50 (prompt)” value in test [2] was “C (C NHE3 pIC50 > 7)”. The “Rat NHE3 pIC50 (persistent)” value in test [3] is recorded as “C (C NHE3 pIC50 > 7)”. In addition, in test [4], the “Human NHE3 pIC50” value is “C (C NHE3 pIC50 > 7)”.

As for `CN1Cc2c(Cl)cc(Cl)cc2[C@H](c2cccc(S(=O)(=O)NCCOCCOCCN(C)C(=O)CCC(CCC(=O)N(C)CCOCCOCCNS(=O)(=O)c3cccc([C@@H]4CN(C)Cc5c(Cl)cc(Cl)cc54)c3)(CCC(=O)N(C)CCOCCOCCNS(=O)(=O)c3cccc([C@@H]4CN(C)Cc5c(Cl)cc(Cl)cc54)c3)NC(=O)COCC(=O)O)c2)C1` [Example 70], in test [1], the FFS came out at 2 and the response vs control in vivo at 3 mg/kg lay in the range of 35 to 75%. Also, the “Rat NHE3 pIC50 (prompt)” value in test [2] is given as “C (C NHE3 pIC50 > 7)”. Besides, the “Rat NHE3 pIC50 (persistent)” value in test [3] is reported as “C (C NHE3 pIC50 > 7)”. Also, in test [4], the “Human NHE3 pIC50” value was “C (C NHE3 pIC50 > 7)”.

In the case of `CCN(CCOCCOCCNC(=O)NCCCN(CCCNC(=O)NCCOCCOCCN(CC)S(=O)(=O)c1cccc([C@@H]2CN(C)Cc3c(Cl)cc(Cl)cc32)c1)CCCNC(=O)NCCOCCOCCN(CC)S(=O)(=O)c1cccc([C@@H]2CN(C)Cc3c(Cl)cc(Cl)cc32)c1)S(=O)(=O)c1cccc([C@@H]2CN(C)Cc3c(Cl)cc(Cl)cc32)c1` [Example 57], the response vs control in vivo at 3 mg/kg in test [1] lay in the range of 35 to 75%. In addition, the “Rat NHE3 pIC50 (prompt)” value in test [2] was “B (B NHE3 pIC50 5-7)”. Moreover, in test [3], the “Rat NHE3 pIC50 (persistent)” value was “C (C NHE3 pIC50 > 7)”. For the same compound, the “Human NHE3 pIC50” value in test [4] was “C (C NHE3 pIC50 > 7)”.

Source of the values: patent US10385024B2, “Compounds and methods for inhibiting NHE-mediated antiport in the treatment of disorders associated with fluid retention or salt overload and gastrointestinal tract disorders” (Ardelyx, Inc., priority 2012, dated 2019).
